System: anti-C-myc peptide monoclonal antibody 9E10
Test: bead staining test for binding to anti-C-myc monoclonal antibody 9E10
Details: bead-bound peptides of the 117,649 peptide library; 1:200 dilution of 9E10 ascites fluid; alkaline phosphatase-coupled goat antimouse IgG colour detection; sequence read from tags
Experimental: The anti-C-myc peptide monoclonal antibody 9E10 was prepared from ascites fluid as described in Evans et al., Mol. Cell Biol., 5, 3610-3616 (1985) and Munro and Pelham, Cell, 48, 899-907 (1987). To test beads for binding to 9E10, beads were incubated in TBST [20 mM Tris-HCl (pH 7.5), 500 mM NaCl and 0.05% Tween-20] containing 1% bovine serum albumin (BSA) to block non-specific protein binding sites. The beads were then centrifuged, resuspended in a 1:200 dilution of 9E10 ascites fluid in TBST+1% BSA and incubated overnight at 4° C. Beads were subsequently washed three times in TBST and incubated for 90 min. at room temperature in alkaline phosphatase-coupled goat antimouse IgG antibodies (Bio-Rad Laboratories), diluted 1:3000 in TBST+1% BSA. After washing the beads twice in TBST and once in phosphatase buffer (100 mM Tris-HCl, pH 9.5, 100 mM NaCl and 5 mM MgCl2), the beads were incubated 1 hr at room temperature in phosphatase buffer containing one one-hundredth part each of AP Color Reagents A & B (Bio-Rad Laboratories). To stop the reaction, the beads were washed twice in 20 mM sodium EDTA, pH 7.4. Solution phase affinities between 9E10 and various peptides were determined by a modification of the competitive ELISA assay described by Harlow et al., Antibodies: a Laboratory Manual, 570-573, Cold Spring Harbor Press, Cold Spring Harbor, N.Y.

EQKLISEEDL
beads stained on exposure to the anti-C-myc monoclonal antibody: stained
